Where “and” joins values, the source holds several entries; their conditions need not be identical. Identical values can stand only once.
What was measured:
[1] = target: Glycogen synthase kinase-3 alpha (Homo sapiens, UniProt P49840); test: TR-FRET Assay
Outline: (§1)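 Enzyme and test compound were first incubated together for 30 minutes in assay buffer. The kinase reaction followed and was stopped with EDTA. The pSer641 signal was read by time-resolved FRET.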

[2] = target: Glycogen synthase kinase-3 beta (Homo sapiens, UniProt P49841); test: TR-FRET Assay
Glycogen synthase kinase-3 beta, sequence (P49841 whole entry): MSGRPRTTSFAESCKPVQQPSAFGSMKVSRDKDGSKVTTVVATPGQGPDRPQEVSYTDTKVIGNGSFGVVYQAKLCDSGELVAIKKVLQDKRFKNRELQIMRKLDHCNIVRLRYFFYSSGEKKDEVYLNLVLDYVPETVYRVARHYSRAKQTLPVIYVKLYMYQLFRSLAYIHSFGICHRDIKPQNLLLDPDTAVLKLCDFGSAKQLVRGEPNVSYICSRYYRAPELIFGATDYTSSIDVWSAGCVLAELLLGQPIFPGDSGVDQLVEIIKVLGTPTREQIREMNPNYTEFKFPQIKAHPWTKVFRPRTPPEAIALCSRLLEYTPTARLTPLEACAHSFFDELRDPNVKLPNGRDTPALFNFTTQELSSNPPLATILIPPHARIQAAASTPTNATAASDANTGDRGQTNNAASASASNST
Outline: as §1

Glycogen synthase kinase-3 alpha, sequence (P49840 whole entry): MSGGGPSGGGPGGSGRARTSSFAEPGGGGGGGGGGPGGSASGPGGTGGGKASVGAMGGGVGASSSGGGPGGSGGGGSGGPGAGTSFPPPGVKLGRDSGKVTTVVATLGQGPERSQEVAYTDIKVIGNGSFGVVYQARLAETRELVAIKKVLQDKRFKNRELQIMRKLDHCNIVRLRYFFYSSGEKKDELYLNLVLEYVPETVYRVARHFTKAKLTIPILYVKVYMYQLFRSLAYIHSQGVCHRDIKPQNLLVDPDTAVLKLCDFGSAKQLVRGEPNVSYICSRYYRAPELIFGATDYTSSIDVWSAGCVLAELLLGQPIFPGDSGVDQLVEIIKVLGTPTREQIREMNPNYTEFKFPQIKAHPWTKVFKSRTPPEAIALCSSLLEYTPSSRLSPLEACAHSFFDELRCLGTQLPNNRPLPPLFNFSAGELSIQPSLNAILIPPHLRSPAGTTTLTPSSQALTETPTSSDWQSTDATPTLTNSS

SMILES	IC50 [1]	IC50 [2]
CC[C@]1(c2cccc(S(C)(=O)=O)c2)C2=CN=NC2NC2=C1C(=O)NC(C)(C)C2 (some centres not stated) [US20250313563, Compound 945621]	1000 to 5000 nM	> 5000 nM
CC[C@]1(c2cccc(C(F)(F)F)c2)C2=CN=NC2NC2=C1C(=O)N(C(C)(C)C)CC2 (some centres not stated) [US20250313563, Compound 945633]	> 5000 nM	> 5000 nM
CC[C@@]1(c2cccc(C(F)(F)F)c2)C2=CN=NC2NC2=C1C(=O)N(C(C)(C)C)CC2 (some centres not stated) [US20250313563, Compound 945634]	1000 to 5000 nM	> 5000 nM
CCC1(c2cccc(C(F)(F)F)c2)C2=CN=NC2NC2=C1C(=O)NC(C(C)(C)C)C2 (configuration not stated) [US20250313563, Compound 945635]	< 100 nM	100 to 1000 nM
CCC1(c2cccc(C(F)(F)F)c2)C2=CN=NC2NC2=C1C(=O)N(c1cccnc1)CC2 (configuration not stated) [US20250313563, Compound 945637]	< 100 nM	100 to 1000 nM
CC1(C)CC(=O)C2=C(C1)NC1=C(CN=N1)C21CCN(S(=O)(=O)c2ccccc2Cl)CC1 [US20250313563, Compound 945655]	< 100 nM	< 100 nM
COc1cccc(S(=O)(=O)N2CCC3(CC2)C2=C(N=NC2)NC2=C3C(=O)CC(C)(C)C2)c1F [US20250313563, Compound 945656]	< 100 nM	< 100 nM and 100 to 1000 nM
CC1(C)CC(=O)C2=C(C1)NC1=C(CN=N1)C21CCN(S(=O)(=O)c2ccccc2C(F)F)CC1 [US20250313563, Compound 945657]	< 100 nM and 100 to 1000 nM	100 to 1000 nM and 1000 to 5000 nM
Cc1cnn(C)c1S(=O)(=O)N1CCC2(CC1)C1=C(N=NC1)NC1=C2C(=O)CC(C)(C)C1 [US20250313563, Compound 945658]	100 to 1000 nM	1000 to 5000 nM
CN(C)C(=O)c1ccc(S(=O)(=O)N2CCC3(CC2)C2=C(N=NC2)NC2=C3C(=O)CC(C)(C)C2)cc1 [US20250313563, Compound 945659]	< 100 nM	< 100 nM
CC1(C)CC(=O)C2=C(C1)NC1=C(CN=N1)C21CCN(S(=O)(=O)c2ccc(Cl)c(Cl)c2)CC1 [US20250313563, Compound 945660]	< 100 nM	< 100 nM
CC1(C)CC(=O)C2=C(C1)NC1=C(CN=N1)C21CCN(S(=O)(=O)c2ccc(Cl)cc2)CC1 [US20250313563, Compound 945661]	< 100 nM	< 100 nM
COc1ccc(S(=O)(=O)N2CCC3(CC2)C2=C(N=NC2)NC2=C3C(=O)CC(C)(C)C2)c(C)c1C [US20250313563, Compound 945662]	< 100 nM	100 to 1000 nM
CC(C)c1nc(S(=O)(=O)N2CCC3(CC2)C2=C(N=NC2)NC2=C3C(=O)CC(C)(C)C2)cn1C [US20250313563, Compound 945663]	< 100 nM	< 100 nM
CCn1nccc1S(=O)(=O)N1CCC2(CC1)C1=C(N=NC1)NC1=C2C(=O)CC(C)(C)C1 [US20250313563, Compound 945664]	< 100 nM	< 100 nM
COc1ccc(F)c(S(=O)(=O)N2CCC3(CC2)C2=C(N=NC2)NC2=C3C(=O)CC(C)(C)C2)c1 [US20250313563, Compound 945665]	< 100 nM	< 100 nM
COc1ccc(S(=O)(=O)N2CCC3(CC2)C2=C(N=NC2)NC2=C3C(=O)CC(C)(C)C2)cn1 [US20250313563, Compound 945666]	< 100 nM	< 100 nM
CC1(C)CC(=O)C2=C(C1)NC1=C(CN=N1)C21CCN(S(=O)(=O)c2ccccc2C(F)(F)F)CC1 [US20250313563, Compound 945667]	< 100 nM	100 to 1000 nM
CC1(C)CC(=O)C2=C(C1)NC1=C(CN=N1)C21CCN(S(=O)(=O)c2ccccc2OC(F)F)CC1 [US20250313563, Compound 945668]	< 100 nM	< 100 nM and 100 to 1000 nM
COc1cc(S(=O)(=O)N2CCC3(CC2)C2=C(N=NC2)NC2=C3C(=O)CC(C)(C)C2)ccc1Cl [US20250313563, Compound 945669]	< 100 nM	< 100 nM
CCOc1ccc(S(=O)(=O)N2CCC3(CC2)C2=C(N=NC2)NC2=C3C(=O)CC(C)(C)C2)cc1 [US20250313563, Compound 945670]	< 100 nM and 100 to 1000 nM	< 100 nM and 1000 to 5000 nM
CCn1ccc(S(=O)(=O)N2CCC3(CC2)C2=C(N=NC2)NC2=C3C(=O)CC(C)(C)C2)n1 [US20250313563, Compound 945671]	< 100 nM	< 100 nM
Cc1ccc(S(=O)(=O)N2CCC3(CC2)C2=C(N=NC2)NC2=C3C(=O)CC(C)(C)C2)s1 [US20250313563, Compound 945672]	< 100 nM and 100 to 1000 nM	< 100 nM and 100 to 1000 nM
CC(C)Oc1ccc(S(=O)(=O)N2CCC3(CC2)C2=C(N=NC2)NC2=C3C(=O)CC(C)(C)C2)cc1 [US20250313563, Compound 945673]	< 100 nM	< 100 nM
Cc1cc(S(=O)(=O)N2CCC3(CC2)C2=C(N=NC2)NC2=C3C(=O)CC(C)(C)C2)c(C)s1 [US20250313563, Compound 945674]	< 100 nM	100 to 1000 nM
CC(C)Oc1ccc(S(=O)(=O)N2CCC3(CC2)C2=C(N=NC2)NC2=C3C(=O)CC(C)(C)C2)cn1 [US20250313563, Compound 945676]	< 100 nM	< 100 nM

SMILES	IC50 [1]	IC50 [2]
CC1(C)CC(=O)C2=C(C1)NC1=C(CN=N1)C21CCN(S(=O)(=O)c2cnn(C(C)(C)C)c2)CC1 [US20250313563, Compound 945677]	< 100 nM	100 to 1000 nM
Cc1cc(S(=O)(=O)N2CCC3(CC2)C2=C(N=NC2)NC2=C3C(=O)CC(C)(C)C2)ccc1OC(C)C [US20250313563, Compound 945678]	< 100 nM	100 to 1000 nM
CCn1nc(C)c(S(=O)(=O)N2CCC3(CC2)C2=C(N=NC2)NC2=C3C(=O)CC(C)(C)C2)c1C [US20250313563, Compound 945679]	100 to 1000 nM	1000 to 5000 nM
COc1ccc(S(=O)(=O)N2CCC3(CC2)C2=C(N=NC2)NC2=C3C(=O)CC(C)(C)C2)cc1C [US20250313563, Compound 945680]	< 100 nM	< 100 nM
CCC1(c2cccc(-c3c(C)cncc3C)c2)C2=CN=NC2NC2=C1C(=O)CC(C)(C)C2 (configuration not stated) [US20250313563, Compound 945703]	< 100 nM	< 100 nM
CCC1(c2cccc(-c3c(F)cncc3OC)c2)C2=CN=NC2NC2=C1C(=O)CC(C)(C)C2 (configuration not stated) [US20250313563, Compound 945704]	< 100 nM	< 100 nM and 100 to 1000 nM
CC[C@@]1(c2cccc(C(F)F)c2)C2=C(CC(C)(C)CC2=O)NC2N=NC(C(F)(F)F)=C21 (some centres not stated) [US20250313563, Compound 945708]	< 100 nM	100 to 1000 nM
Cn1ccc(S(=O)(=O)N2CC[C@]3(C2)C2=C(N=NC2)NC2=C3C(=O)CC(C)(C)C2)n1 [US20250313563, Compound 945714]	< 100 nM	< 100 nM
CC[C@]1(c2cccc(S(=O)(=O)C3CC3)c2)C2=C(CC(C)(C)CC2=O)NC2N=NC(C(F)(F)F)=C21 (some centres not stated) [US20250313563, Compound 945715]	< 100 nM	< 100 nM
CC1(C)CC(=O)C2=C(C1)NC1=C(CN=N1)[C@]21CCN(S(=O)(=O)c2ccccc2F)C1 [US20250313563, Compound 945718]	< 100 nM	< 100 nM and 100 to 1000 nM
CC1(C)CC(=O)C2=C(C1)NC1=C(CN=N1)[C@@]21CCN(S(=O)(=O)c2ccccc2F)C1 [US20250313563, Compound 945719]	< 100 nM	< 100 nM
CCC1(c2cccc(-c3ccncc3F)c2)C2=C(CC(C)(C)NC2=O)NC2N=NC(C)=C21 (configuration not stated) [US20250313563, Compound 945722]	< 100 nM	< 100 nM
CCC1(c2cccc(N3CCCC3)c2)C2=CN=NC2NC2=C1C(=O)NC(C)(C)C2 (configuration not stated) [US20250313563, Compound 945723]	100 to 1000 nM	1000 to 5000 nM
CC[C@@]1(c2cccc(-c3ccncc3O)c2)C2=CN=NC2NC2=C1C(=O)CC(C)(C)C2 (some centres not stated) [US20250313563, Compound 945724]	< 100 nM and 100 to 1000 nM	< 100 nM and 1000 to 5000 nM
CC[C@]1(c2cccc(-c3cnn(C)c3C)c2)C2=C(CC(C)(C)NC2=O)NC2N=NC(C)=C21 (some centres not stated) [US20250313563, Compound 945727]	> 5000 nM	> 5000 nM
CC[C@]1(c2cccc(-c3ccncc3O)c2)C2=CN=NC2NC2=C1C(=O)CC(C)(C)C2 (some centres not stated) [US20250313563, Compound 945728]	1000 to 5000 nM	> 5000 nM
CC[C@]1(c2cccc(-c3cncn3C(C)C)c2)C2=CN=NC2NC2=C1C(=O)CC(C)(C)C2 (some centres not stated) [US20250313563, Compound 945729]	100 to 1000 nM	1000 to 5000 nM
CCc1cccc(N(C)c2cccc([C@]3(CC)C4=CN=NC4NC4=C3C(=O)CC(C)(C)C4)c2)n1 (some centres not stated) [US20250313563, Compound 945730]	< 100 nM	100 to 1000 nM
CC[C@@]1(c2cccc(-c3cnn(C)c3C)c2)C2=C(CC(C)(C)NC2=O)NC2N=NC(C)=C21 (some centres not stated) [US20250313563, Compound 945731]	< 100 nM	< 100 nM
CC1(C)CC(=O)C2=C(C1)NC1=C(CN=N1)[C@@]21CCC[C@@H](C#N)C1 [US20250313563, Compound 945906]	100 to 1000 nM	100 to 1000 nM
CC[C@]1(c2cccc(C(F)(F)F)c2)C2=CN=NC2NC2=C1C(=O)N[C@H](C(C)(C)C)C2 (some centres not stated) [US20250313563, Compound 945920]	< 100 nM and 100 to 1000 nM	100 to 1000 nM and 1000 to 5000 nM
CC[C@@]1(c2cccc(C(F)(F)F)c2)C2=CN=NC2NC2=C1C(=O)N[C@H](C(C)(C)C)C2 (some centres not stated) [US20250313563, Compound 945922]	< 100 nM	100 to 1000 nM
CC[C@]1(c2cccc(Oc3cncnc3)c2)C2=CN=NC2NC2=C1C(=O)CC(C)(C)C2 (some centres not stated) [US20250313563, Compound 945933]	< 100 nM	< 100 nM
CCC1(c2cccc(-c3ccnc(CCO)c3)c2)C2=CN=NC2NC2=C1C(=O)CC(C)(C)C2 (configuration not stated) [US20250313563, Compound 945992]	< 100 nM	100 to 1000 nM
CCC1(c2cccc(-c3cnn4c3CCCC4)c2)C2=C(CC(C)(C)NC2=O)NC2N=NC(C)=C21 (configuration not stated) [US20250313563, Compound 945993]	< 100 nM	100 to 1000 nM

From BindingDB's records for patent US20250313563 (The Broad Institute, 2025)
